Test results published in patent US11952368B2, “FAPI dimer compound, FAPI dimer-based positron emission tomography (PET) imaging agent for tumor diagnosis, and preparation method and use thereof” (XIAMEN UNIVERSITY, priority 2021, dated 2024).

Molecular target: T1, FAP on CAFs (Homo sapiens, UniProt Q12884)
T1 construct: FAP-expressing CAFs were inoculated in a 24-well plate; endogenous in cells; host or cells: cancer-associated fibroblasts (CAFs)
T1 sequence (Q12884 1-760): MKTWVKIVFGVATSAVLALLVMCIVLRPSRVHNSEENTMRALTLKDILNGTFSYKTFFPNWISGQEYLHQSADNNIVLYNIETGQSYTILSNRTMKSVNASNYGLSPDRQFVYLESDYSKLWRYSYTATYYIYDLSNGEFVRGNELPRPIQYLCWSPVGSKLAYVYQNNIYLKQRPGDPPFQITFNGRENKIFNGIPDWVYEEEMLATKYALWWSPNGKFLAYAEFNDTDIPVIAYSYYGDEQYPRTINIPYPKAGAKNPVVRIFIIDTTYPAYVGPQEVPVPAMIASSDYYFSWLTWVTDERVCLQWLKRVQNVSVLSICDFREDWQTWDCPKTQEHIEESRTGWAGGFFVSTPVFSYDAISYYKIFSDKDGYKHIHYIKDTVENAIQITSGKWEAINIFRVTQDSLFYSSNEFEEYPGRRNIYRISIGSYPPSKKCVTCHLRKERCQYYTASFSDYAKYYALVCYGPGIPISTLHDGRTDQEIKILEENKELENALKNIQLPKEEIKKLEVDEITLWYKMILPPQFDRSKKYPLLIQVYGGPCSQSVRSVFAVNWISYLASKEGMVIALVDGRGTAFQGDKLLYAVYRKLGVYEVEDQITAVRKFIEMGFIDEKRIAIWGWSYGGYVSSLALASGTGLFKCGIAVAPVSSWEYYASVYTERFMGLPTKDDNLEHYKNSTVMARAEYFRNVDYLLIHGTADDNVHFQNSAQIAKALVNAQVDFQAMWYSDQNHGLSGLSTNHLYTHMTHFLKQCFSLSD
Experiment: FAP binding assay (radioligand competition) on CAFs
Method: FAP-expressing CAFs were inoculated in a 24-well plate and cultivated with a 10% (volume fraction) FBS-containing 1640 medium for 48 h before the experiment until a cell density was about 80% to 90%; the medium was changed to an FBS-free 1640 medium; and the ^68Ga-2PEG(3)-FAPI-dimer, ^68Ga-FAPI-46, or ^68Ga-2PEG(3)-FAPI-dimer+11.3 nmol FAPI-46 (for the blocking experiment) was added to the 24-well plate and incubated, with predetermined intervals of 10 min, 30 min, 60 min, 90 min, and 120 min. The FAP binding assay was conducted after a radiolabeled compound and a corresponding unlabeled FAPI derivative (1.27×10^−4-10^−13 mol/L of 2PEG(3)-FAPI-dimer was added to ^68Ga-2PEG(3)-FAPI-dimer; and 2.83×10^−4-1×10^−13 mol/L of FAPI-46 was added to ^68Ga-FAPI-46) were co-incubated for 60 min. A half-inhibitory concentration (IC50s) was calculated by using GraphPad Prism to fit data through nonlinear regression. In each step of the experiment, cells were washed twice with 1 mL of PBS. Finally, CAFs were lysed with 0.5 mL of a 1 mol/L NaOH aqueous solution to conduct radioactive counting with a gamma counter. 3 parallel replicates were set for each experiment.

IC50 value compared with FAPI-46: similar
SMILES: CN(CCCN1CCN(C(=O)COCCOCCOCCNC(=O)CCC(=O)N[C@@H](CCCCNC(=O)CN2CCN(CC(=O)O)CCN(CC(=O)O)CCN(CC(=O)O)CC2)C(=O)NCCOCCOCCOCC(=O)N2CCN(CCCN(C)c3ccc4nccc(C(=O)NCC(=O)N5CC(F)(F)C[C@H]5C#N)c4c3)CC2)CC1)c1ccc2nccc(C(=O)NCC(=O)N3CC(F)(F)C[C@H]3C#N)c2c1 [2PEG(3)-FAPI-dimer]
